Laboratory results: US20150376235A1, “Peptides for the Treatment of Immune Reconstitution Inflammatory Syndrome (IRIS) and Related Diseases” (priority 2014, published 2015)
Non-standard residues stand in square brackets, D forms with d. No end group written: not given here.

Legend:
MCP-1/CCR2 = biological target: T1, MCP-1/CCR2 (Homo sapiens, UniProt P41597); assay: MCP-1/CCR2 elicited β-integrin-mediated adhesion of human monocytes to human fibronectin (FIG. 5); type: cell-based; details: 10 minutes pretreatment
T1 construct: endogenous in cells; host or cells: human monocytes
Experimental: The results are of interest as approved treatments for MS include the immunosupressive monoclonal antibody therapy “Tysabri”, which blocks T cell binding to cellular integrins, and thereby infiltration of inflammatory cells into brains of MS patients.
All-D-(IDNYT) Inhibition of Human Monocyte and THP-1 Cell β-Integrin-Mediated Adhesion to hu-Fibronectin
Human monocytes were treated with the indicated doses of all-D-(IDNYT) for 10 minutes prior to adherence to the β-integrin human fibronectin. Data is the average of two separate experiments, conducted with triplicate determinations. Data are presented as Mean±SEM of the normalized adherence response from two experiments. The IC50 for inhibition of MCP-1 stimulated adherence was generated using a nonlinear inhibition curve fit in GraphPad Prism Version 5.0.

CCR2 (MCP-1) = biological target: T2, CCR2 (MCP-1) (Homo sapiens, UniProt P41597); assay: CCR2 (MCP-1) elicited chemotaxis of human monocytes, all-D-pentapeptides (FIG. 4); type: cell-based; details: 20 pM peptide 30 minutes; MCP-1 0.6 nM, 2 hours
T2 construct: Purified human monocytes were treated with 20 pM of All-D-pentapeptides for 30 minutes; endogenous in cells; host or cells: purified human monocytes
Experimental: Purified human monocytes were treated with 20 pM of All-D-pentapeptides for 30 minutes prior to chemotaxis against human MCP-1 (0.6 nM) for 2 hours. […] A representative experiment is shown comprising triplicate determinations and is presented as relative fluorescence units, Mean±SEM.

[1] = test system: inflammatory cytokines, chemokines, and receptors; details: Rat; oral gavage 0.05-1 mg/kg, 7 days
Text: The specific experimental details are provided in Padi, 2012.

CCR5 = CCR5 (Homo sapiens, UniProt P51681); details: 30 min pretreatment; human MIP-1β 50 ng/mL, 90 min; cited from earlier work
CCR2 = CCR2 (Homo sapiens, UniProt P41597); details: 30 min pretreatment; human MCP-1 50 ng/mL, 90 min; cited from earlier work
[2] = test system: rats with partial ligation of the sciatic nerve; details: cited from earlier work
[3] = Pharmacokinetic study following intravenous and oral administration, LC-MS/MS of plasma; type: in vivo, male Sprague Dawley rat
Experimental: A pharmacokinetic study of all-D [TTNYT] (RAP-103) (SEQ ID NO:2) following intravenous and oral administration was conducted at a target dose level of 1 mg/kg in the male Sprague Dawley rat. The concentration of RAP-103 in each plasma and brain sample was measured using a suitable LC-MS/MS assay. The assay used was a research grade assay (RGA-1) which was established by assessing the accuracy, precision and the linearity of the method. Plasma concentrations generated were used to evaluate the pharmacokinetic parameters of all-D-TTNYT (RAP-103).
The dose formulation was administered intravenously to multiple animals as a slow bolus over ca 30 s via the tail vein and to a different group of animals orally via gastric gavage at a target dose volume of 1 mL/kg, to achieve a target dose level of 1 mg/kg. The dose volume administered was calculated according to the bodyweight of the animal on the day of dosing. The weight of administered dose was recorded. […] Results expressed as ng/mL

[4] = test system: inflammatory cytokines, chemokines, and receptors; details: Rat; oral gavage 0.05-1 mg/kg, 7 days; cited from earlier work
CCL2 (MCP-1) = biological target: T3, CCL2 (MCP-1) (Homo sapiens, UniProt P41597); assay: Blocking CCL2 (MCP-1) chemotaxis at low concentration (FIG. 3); type: cell-based; details: compounds at 10^−14 M
T3 construct: endogenous in cells; host or cells: human monocytes
T3 sequence (P41597 1-360 isoform P41597-2): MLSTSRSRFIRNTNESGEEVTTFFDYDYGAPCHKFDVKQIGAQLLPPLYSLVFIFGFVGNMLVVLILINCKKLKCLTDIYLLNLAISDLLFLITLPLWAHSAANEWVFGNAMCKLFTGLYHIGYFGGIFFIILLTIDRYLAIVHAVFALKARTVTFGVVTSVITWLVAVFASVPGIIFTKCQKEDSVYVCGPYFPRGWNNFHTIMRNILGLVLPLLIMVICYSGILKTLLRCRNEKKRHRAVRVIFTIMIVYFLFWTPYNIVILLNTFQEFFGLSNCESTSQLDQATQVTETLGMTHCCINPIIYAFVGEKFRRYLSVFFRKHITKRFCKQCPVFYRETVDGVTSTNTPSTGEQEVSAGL
Text: FIG. 3 illustrates the effects of several all-D amino acid peptides in blocking CCL2 (MCP-1) chemotaxis at low concentration. The amino acid sequences of these peptides are: SSTYR (SEQ ID NO:3), TTSYT (SEQ ID NO:4) and NTSYR (SEQ ID NO:7)
In order to show the generalizability of the all-D-amino acid modifications we synthesized additional examples and tested them for antagonism of chemokines receptors implicated in the subject diseases, FIG. 3
Additional All-D-(Pepntapeptides) from V2 Region Block CCR5/CCR2 Human Monocyte Chemotaxis
In FIG. 3, the effects of RAPs in blocking CCL2 (MCP-1) chemotaxis was illustrated.

inflammatory cytokines = details: Hu; cited from earlier work
TLR4 = TLR4 (human, UniProt O00206 24-839); assay: cell-based or functional assay
Sequence of TLR4 (O00206 24-839): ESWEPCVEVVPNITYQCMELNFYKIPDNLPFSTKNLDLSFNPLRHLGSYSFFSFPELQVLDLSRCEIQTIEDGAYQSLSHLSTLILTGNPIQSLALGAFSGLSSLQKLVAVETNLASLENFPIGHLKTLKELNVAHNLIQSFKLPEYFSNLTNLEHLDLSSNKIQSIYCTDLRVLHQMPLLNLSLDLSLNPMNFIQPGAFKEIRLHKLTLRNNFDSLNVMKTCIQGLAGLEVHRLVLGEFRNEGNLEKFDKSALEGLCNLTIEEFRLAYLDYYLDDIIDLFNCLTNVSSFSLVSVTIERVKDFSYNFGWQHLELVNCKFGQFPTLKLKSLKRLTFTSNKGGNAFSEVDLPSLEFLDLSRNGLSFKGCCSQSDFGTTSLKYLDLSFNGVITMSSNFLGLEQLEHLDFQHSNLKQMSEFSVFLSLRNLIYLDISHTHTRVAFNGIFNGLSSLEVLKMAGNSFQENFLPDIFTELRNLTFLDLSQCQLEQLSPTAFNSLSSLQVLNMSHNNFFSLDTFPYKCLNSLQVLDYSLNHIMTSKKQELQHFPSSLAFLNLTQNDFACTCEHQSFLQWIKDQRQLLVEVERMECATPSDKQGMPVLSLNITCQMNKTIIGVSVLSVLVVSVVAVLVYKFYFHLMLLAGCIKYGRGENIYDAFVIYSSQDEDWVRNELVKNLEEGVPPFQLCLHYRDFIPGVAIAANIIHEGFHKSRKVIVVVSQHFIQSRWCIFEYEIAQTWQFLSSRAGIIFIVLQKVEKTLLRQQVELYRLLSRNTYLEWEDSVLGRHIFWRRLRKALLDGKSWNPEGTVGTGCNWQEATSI

T2 sequence (P41597 whole entry): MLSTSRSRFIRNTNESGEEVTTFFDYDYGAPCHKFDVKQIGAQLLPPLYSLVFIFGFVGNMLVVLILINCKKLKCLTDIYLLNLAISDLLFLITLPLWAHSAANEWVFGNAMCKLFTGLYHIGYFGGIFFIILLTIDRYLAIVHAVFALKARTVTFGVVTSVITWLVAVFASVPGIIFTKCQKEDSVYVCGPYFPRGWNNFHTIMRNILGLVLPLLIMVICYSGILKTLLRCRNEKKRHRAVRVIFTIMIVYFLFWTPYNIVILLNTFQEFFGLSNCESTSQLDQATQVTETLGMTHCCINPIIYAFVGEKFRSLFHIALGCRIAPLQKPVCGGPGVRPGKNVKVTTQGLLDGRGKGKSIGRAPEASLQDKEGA
T1 sequence (P41597 whole entry): as above
Sequence of CCR2 (P41597 whole entry): as above
Sequence of CCR5 (P51681 whole entry): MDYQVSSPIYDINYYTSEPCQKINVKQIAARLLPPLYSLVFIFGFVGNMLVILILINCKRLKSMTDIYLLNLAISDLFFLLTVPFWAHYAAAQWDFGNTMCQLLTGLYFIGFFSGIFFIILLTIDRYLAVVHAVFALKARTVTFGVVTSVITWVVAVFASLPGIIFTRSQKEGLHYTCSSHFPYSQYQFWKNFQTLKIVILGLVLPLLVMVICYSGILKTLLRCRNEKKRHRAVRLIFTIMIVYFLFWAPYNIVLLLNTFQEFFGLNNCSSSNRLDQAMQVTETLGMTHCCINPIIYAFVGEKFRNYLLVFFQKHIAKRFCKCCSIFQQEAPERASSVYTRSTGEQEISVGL

In the case of IDNYT ([dI][dD][dN][dY][dT]), the “blocking of MCP-1 elicited adhesion to human fibronectin” value (MCP-1/CCR2) is reported as “potently blocking” and the “inhibition of CCR2 (MCP-1) elicited chemotaxis” value (from here on “inhibition of CCR2”) (CCR2 (MCP-1)) is reported as “potently block”.

For `C[C@H](O)[C@@H](N)C(=O)N[C@@H](C(=O)N[C@H](CC(N)=O)C(=O)N[C@H](Cc1ccc(O)cc1)C(=O)N[C@@H](C(=O)O)[C@H](C)O)[C@H](C)O` [RAP-103, All-D-TTNYT], the CCL2 change [1] was “decrease”, the CCL3 change [1] was “decrease” and the CCR2 change [1] was “decrease”. The CCR5 change [1] was “decrease”, the MCP-1 change [1] was “decrease” and the MIP-1α change [1] was “decrease”. For the same molecule, the TNFα change [1] was “decrease”, the “blocking of MIP-1β-elicited chemotaxis” value (CCR5) was “potently blocking” and the “blocking of MCP-1-elicited chemotaxis” value (CCR2) was “potently blocking”. For the same molecule, the already established hypersensitivity ([2]; 0.2-1 mg/kg, days 8 to 12) was “reverses”, the “development of thermal hyperalgesia” value ([2]; oral 0.05-1 mg/kg for 7 days) was “inhibits the development” and the mechanical allodynia ([2]; oral 0.05-1 mg/kg for 7 days) was “fully prevents”. For the same molecule, the monocyte infiltration ([2]; peripheral nerve injury) was “reduce”, the spinal microglial activation ([2]; peripheral nerve injury) was “reduce” and the “time of peak levels in plasma” value ([3]; 1 mg/kg, male rat) was 10 to 15 min. For the same molecule, the “tolerability of dose administrations” value ([3]; intravenous and oral, 1 mg/kg, male rat) was “well tolerated”, the level at 0.25 h ([3]; male, Sprague-Dawley, rat, plasma, po, 1 mg/kg, oral 1 mg/kg, 0.25 h, individual animals 004M, 005M, 006M, read-out: plasma concentration) was 6.42 ng/mL and the level at 0.5 h ([3]; male, Sprague-Dawley, rat, plasma, po, 1 mg/kg, oral 1 mg/kg, 0.5 h, individual animals 004M, 005M, 006M, read-out: plasma concentration) was 10.2 ng/mL. For the same molecule, the level at 2 h ([3]; male, Sprague-Dawley, rat, plasma, po, 1 mg/kg, oral 1 mg/kg, 2 h, individual animals 004M, 005M, 006M, read-out: plasma concentration) was 12 ng/mL, the level at 4 h ([3]; male, Sprague-Dawley, rat, plasma, po, 1 mg/kg, oral 1 mg/kg, 4 h, individual animals 004M, 005M, 006M, read-out: plasma concentration) was 9.09 ng/mL and the level at 8 h ([3]; male, Sprague-Dawley, rat, plasma, po, 1 mg/kg, oral 1 mg/kg, 8 h, individual animals 004M, 005M, 006M, read-out: plasma concentration) was 6.67 ng/mL. For the same molecule, the plasma concentration ([3]; oral 1 mg/kg, male rat, 0.083 h, individual animals 004M, 005M, 006M) was “<LLOQ”, the plasma concentration ([3]; oral 1 mg/kg, male rat, 0.25 h, individual animals 004M, 005M, 006M, 1 mg/kg) was “<LLOQ” and the plasma concentration ([3]; oral 1 mg/kg, male rat, 1 h, individual animals 004M, 005M, 006M) was “<LLOQ”. For the same molecule, the plasma concentration ([3]; oral 1 mg/kg, male rat, 2 h, individual animals 004M, 005M, 006M, 1 mg/kg) was “<LLOQ”, the plasma concentration ([3]; oral 1 mg/kg, male rat, 4 h, individual animals 004M, 005M, 006M, 1 mg/kg) was “<LLOQ” and the plasma concentration ([3]; oral 1 mg/kg, male rat, 8 h, individual animals 004M, 005M, 006M, 1 mg/kg) was “<LLOQ”. The plasma concentration ([3]; oral 1 mg/kg, male rat, 12 h, individual animals 004M, 005M, 006M) was “<LLOQ”, the IL-1β change [4] was “decrease” and the IL-6 change [4] was “decrease”.

With ETWYS ([dE][dT][dW][dY][dS]) the “inhibition of CCR2” value (CCR2 (MCP-1)) was “potently block”.

In the case of “NTSYG ([dN][dT][dS][dY]G; not fully specified (residue 5))”, the “inhibition of CCR2” value (CCR2 (MCP-1)) is reported as “potently block”.

In the case of NTSYR ([dN][dT][dS][dY][dR]), the “blocking CCL2 (MCP-1) chemotaxis” value (CCL2 (MCP-1)) is reported as “retain potency”.

For D-ala1-peptide T-amide [RAP-101], the IL-1 change (inflammatory cytokines) is listed as “decrease”, the IL-6 change (inflammatory cytokines) is listed as “decrease” and the IL-8 change (inflammatory cytokines) is listed as “decrease”. The TNFα change (inflammatory cytokines) was “decrease”.

For NTRYR, the “inhibition of CCR2” value (CCR2 (MCP-1)) was “potently block”.

With TTSYT ([dT][dT][dS][dY][dT]) the “blocking CCL2 (MCP-1) chemotaxis” value (CCL2 (MCP-1)) was “retain potency”.

In the case of SSTYR ([dS][dS][dT][dY][dR]), the “blocking CCL2 (MCP-1) chemotaxis” value (CCL2 (MCP-1)) is reported as “retain potency”.

In the case of [dT][dT][dN][dY][dT] [all-D[TTNYT] (RAP-103)], the “IC50 for inhibition of LPS-induced TNFα production in monocyte-derived iDC” value (TLR4) is reported as about 0.1 pM.
